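Where inhibition never reached the appropriate level, the endpoint shown equals the highest concentration tested. Otherwise, values were interpolated linearly from a five-concentration, 48-hour dose response in 96-well plates. GI50 is the concentration that inhibits growth by half. TGI: total growth inhibition.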

Among the test systems are MOLT-4 leukemia; EKVX NSCLC; OVCAR-4 ovarian; SF-295 CNS; HT29 colon; SN12C renal; NCI-H460 lung; NCI/ADR-RES ovarian; 786-0 renal; CAKI-1 renal.
What all share (assay): NCI-60 cell line screen, 48 h

Take `CCOC(=O)c1c(NC(=O)c2cccc(C(F)(F)F)c2)sc2c(CN(C)C)c(O)ccc12`: the GI50 with MOLT-4 leukemia was 3.77 µM; with EKVX NSCLC, 15.2 µM; in the test on OVCAR-4 ovarian it was 9850 nM; in the test on SF-295 CNS, 2830 nM; in the test on HT29 colon it was 2210 nM; in the test with SN12C renal, 7.68 µM. For the same compound, the GI50 was 2.19 µM with NCI-H460 lung, 8.82 µM with NCI/ADR-RES ovarian, 2330 nM in the test with 786-0 renal and 2160 nM with CAKI-1 renal. The TGI in the test on MOLT-4 leukemia amounted to 38.8 µM; with EKVX NSCLC, 36.1 µM; in the test with OVCAR-4 ovarian it was 21.5 µM; in the test with SF-295 CNS, 9.2 µM; with HT29 colon, 5.05 µM; in the test with SN12C renal, 20.4 µM. Moreover, the TGI in the test on NCI-H460 lung stood at 4.76 µM; in the test on NCI/ADR-RES ovarian, 21 µM; in the test on 786-0 renal it was 6.1 µM; in the test on CAKI-1 renal, 5.07 µM.
`N=C(N)c1ccc2nc(-c3cc(CC(=O)N[C@@H](CC(=O)O)C(=O)O)cc(-c4cc(S(N)(=O)=O)ccc4O)c3O)[nH]c2c1`: the GI50 was greater than 100 µM with MOLT-4 leukemia; greater than 100 µM with EKVX NSCLC; greater than 100000 nM with OVCAR-4 ovarian; greater than 100000 nM in the test with SF-295 CNS; greater than 100000 nM in the test with HT29 colon; greater than 100 µM in the test with SN12C renal. For the same compound, the GI50 in the test with NCI-H460 lung was greater than 100 µM; with NCI/ADR-RES ovarian, greater than 100 µM; with 786-0 renal, greater than 100000 nM; in the test with CAKI-1 renal it was greater than 100000 nM. The TGI in the test on MOLT-4 leukemia, in the test with EKVX NSCLC, with OVCAR-4 ovarian, in the test on SF-295 CNS, in the test with HT29 colon and in the test on SN12C renal was greater than 100 µM in each case. In addition, the TGI in the test on NCI-H460 lung, in the test with NCI/ADR-RES ovarian, with 786-0 renal and with CAKI-1 renal was greater than 100 µM throughout.
Take `O=CN1CCN(CC(O)CN2CCCCC2)CC1` (configuration not stated): the TGI with MOLT-4 leukemia, in the test on EKVX NSCLC, with OVCAR-4 ovarian, in the test with SF-295 CNS, in the test on HT29 colon and in the test with SN12C renal was greater than 100 µM throughout. Also, the TGI in the test with NCI/ADR-RES ovarian, in the test on 786-0 renal and with CAKI-1 renal was greater than 100 µM in each case.
As to `CCOc1ccncc1[N+](=O)[O-]`, the TGI with MOLT-4 leukemia, in the test with EKVX NSCLC, with SF-295 CNS, in the test on HT29 colon, with SN12C renal and with NCI/ADR-RES ovarian was greater than 100 µM in each case. The TGI with 786-0 renal and in the test on CAKI-1 renal was greater than 100 µM each time.
In the case of `Cc1nc(-[n+]2nc(-c3ccncc3)nn2-c2ccccc2)sc1C`, the TGI with MOLT-4 leukemia, in the test on EKVX NSCLC, in the test on SF-295 CNS, in the test on HT29 colon, in the test on SN12C renal and in the test with NCI/ADR-RES ovarian was greater than 100 µM throughout. Moreover, the TGI in the test on 786-0 renal and with CAKI-1 renal was greater than 100 µM throughout.
For the compound `C#COc1cccc(Nc2c(C#N)cnc3ncc(NC(=O)CCl)cc23)c1`, the GI50 with MOLT-4 leukemia was 4.2 µM; with EKVX NSCLC, greater than 62.5 µM; in the test on SF-295 CNS, greater than 62500 nM; in the test with HT29 colon, 21800 nM; in the test with SN12C renal it was 16.2 µM; in the test with NCI-H460 lung, 31.9 µM. The results for the GI50 in the test with NCI/ADR-RES ovarian, in the test on 786-0 renal and with CAKI-1 renal were greater than 62.5 µM, 36600 nM and greater than 62500 nM, respectively. The TGI with MOLT-4 leukemia, in the test on EKVX NSCLC, in the test with SF-295 CNS, in the test with HT29 colon, in the test with SN12C renal and in the test on NCI-H460 lung was greater than 62.5 µM each time. Moreover, the TGI with NCI/ADR-RES ovarian, in the test with 786-0 renal and with CAKI-1 renal was greater than 62.5 µM throughout.
As for `COc1cc2c3c(n(CCCOC(=O)C(F)(F)F)c(=O)c2cc1OC)-c1cc2c(cc1C3=O)OCO2`, the GI50 in the test with EKVX NSCLC is 0.612 µM; with OVCAR-4 ovarian, 208 nM; with SF-295 CNS it was less than 10 nM; in the test on SN12C renal it was less than 0.01 µM; with NCI-H460 lung it was 3 µM; in the test with NCI/ADR-RES ovarian, less than 0.0289 µM. The GI50 with 786-0 renal and with CAKI-1 renal was less than 10 nM each time. Also, the TGI was greater than 63.8 µM with EKVX NSCLC; greater than 100 µM with OVCAR-4 ovarian; 0.721 µM with SF-295 CNS; greater than 35.1 µM in the test on HT29 colon; 0.0272 µM in the test on SN12C renal; greater than 100 µM in the test on NCI-H460 lung. Besides, the TGI is 0.137 µM in the test with NCI/ADR-RES ovarian and less than 0.0241 µM with 786-0 renal.
Turning to `CN(CCO)c1ccc(N2Cc3ccccc3OC3=C2C(=O)c2c(O)ccc(O)c2C3=O)cn1`, the GI50 in the test with MOLT-4 leukemia was 0.135 µM; in the test with EKVX NSCLC it was 0.284 µM; in the test with OVCAR-4 ovarian, 173 nM; in the test with SF-295 CNS, 1410 nM; with HT29 colon, 172 nM; with SN12C renal, 0.165 µM. For the same compound, the GI50 with NCI-H460 lung is 0.355 µM; in the test on NCI/ADR-RES ovarian it was 0.31 µM; with 786-0 renal, 245 nM. Besides, the TGI in the test with MOLT-4 leukemia was found to be 1.19 µM; in the test on EKVX NSCLC, 1.45 µM; in the test with OVCAR-4 ovarian, 0.343 µM; with SF-295 CNS, 3.52 µM; with HT29 colon it was 0.468 µM; in the test on SN12C renal it was 0.355 µM. Further, the TGI with NCI-H460 lung stood at 1.35 µM; with NCI/ADR-RES ovarian, 1.34 µM; in the test on 786-0 renal it was 0.74 µM.

Source of the values: PubChem BioAssay (NCI).
